What was measured:
[1] = system: cultured cortical neurons; test: NMDA excitotoxicity in cultured cortical neurons (propidium iodide fluorescence); format: cell-based, mouse
reactive oxygen species = test: ROS production (DHR fluorescence); format: cell-based, mouse
Protocol: The production of reactive oxygen species (ROS) was measured with DHR. In brief, DHR is oxidized to a fluorescent rhodamine-123 (Royall and Ischiropoulos, 1993), and the consequent rise in fluorescence may be used as an indicator of ROS production.
ROS were measured as previously described (Tymianski et al., 1998; Aarts et al., 2003). In brief, cultures were pre-loaded for 30 min with 5 μM DHR and subjected to the experimental insult. DHR fluorescence was measured in a multiwell plate fluorescence scanner (Cytofluor II, PerSeptive Biosytems, Framingham, Mass., USA; 485 nm excitation, 530 emission). DHR fluorescence was normalized to baseline using the formula at (Ft−Fo)/F0; Where Ft=DHR fluorescence at time t, Fo=DHR fluorescence at time zero. DHR fluorescence images were also acquired using a microscope (465-495 nm excitation and 515-555 nm emission) as described above for TMRM.

NMDARs = test: NMDA-evoked 45Ca2+ accumulation in cortical cultures; format: cell-based, mouse; conditions: 50 nM pre-treatment
Protocol: Excitotoxicity and Ca^2+ accumulation measurements were performed identically to the methods described and validated in refs. 4 and 14. I used measurements of propidium iodide fluorescence as an index of cell death, and of radiolabelled ^45Ca^2+ accumulation for Ca^2+ load determinations in sister cultures on the same day. Experimental solutions were as previously described (4). Ca^2+ influx was pharmacologically channeled through distinct pathways as follows: To NMDARs by applying NMDA (×60 min) in the presence of both CNQX (Research Biochemicals Inc.) and nimodipine (Miles Pharmaceuticals), to non-NMDARs by applying kainic acid (×60 min or 24 h) in the presence of both MK-801 (RBI) and nimodipine, and to VSCCs using 50 mM K^+ solution (×60 min) containing 10 mM Ca^2+ and S(−)-Bay K 8644, an L-type channel agonist (300-500 nM; RBI), MK-801 and CNQX. Antagonist concentrations were (in μM): MK-801 10, CNQX 10, nimodipine 2. All three antagonists were added after the 60 min agonist applications for the remainder of all experiments (24 h). A validation of this approach in isolating Ca^2+ influx to the desired pathway in these cortical cultures has been published (4).

[2] = system: transient unilateral middle cerebral artery occlusion
[3] = Baseline behaviours after single i.v. injection; format: in vivo, Sprague-Dawley rats; conditions: over 4 hours, 0.5-50 nmols/g
[4] = Physiological variables in pre-treatment MCAO study; format: in vivo, Sprague-Dawley rats
Protocol: Next, I examined whether pretreatment with Tat-peptides would reduce stroke damage. Experiments were carried out in adult male Sprague-Dawley rats subjected to transient middle cerebral artery occlusion (MCAO) for 90 minutes by the intraluminal suture method (36,37). Animals were fasted overnight and injected with atropine sulfate (0.5 mg/kg IP). After 10 minutes anesthesia was induced with 3.5% halothane in a mixture of nitrous oxide and oxygen (Vol. 2:1) and maintained with 0.8% halothane. Rats were orally intubated, mechanically ventilated, and paralyzed with pancuronium bromide (0.6 mg/kg IV). Body temperature was maintained at 36.5-37.5° C. with a heating lamp. Polyethylene catheters in the femoral artery and vein were used to continuously record blood pressure and to sample blood for gas and pH measurements. […] This produces an extensive infarction encompassing the cerebral cortex and basal ganglia. […] Physiological parameters (body temperature, blood pressure, blood gases) were monitored and maintained throughout the experiment (Table 1). All experimental manipulations and analyses of data were performed by individuals blinded to the treatment groups. The extent of cerebral infarction was measured 24 h after MCAO onset (FIG. 7C inset). The postural reflex test (38), and the forelimb placing test (39) were used to grade neurological function on a scale of 0 to 12 (normal=0; worst=12) during MCAO (at 50 minutes) and 24 h thereafter.

CA1 neurons = test: Electrophysiological recordings in acute hippocampal slices (CA1 neurons); parameters: species or system rat; conditions: 50 nM bath-applied
Protocol: Electrophysiological Recordings were made in […] hippocampal slices from 20-36 day old Sprague-Dawley rats perfused at room temperature with ACSF containing (in mM) 126 NaCl, 3 KCl, 2 MgCl2, 2 CaCl2, 1.2 KH2PO4, 26 NaHCO3 and 10 glucose and bubbled with 95% O2/5% CO2. Whole-cell recordings of CA1 neurons were performed using the “blind” method with an Axopatch-1D amplifier (Axon Instruments, Foster City, Calif.) at holding potential −60 mV. Pipettes (4-5 MΩ) were filled with solution containing (mM): 135 CsCl, 2 MgCl2, 0.1 CaCl2, 0.5 EGTA, 10 HEPES, 4 Mg-ATP, 0.2 GTP, and 5 QX-314, pH 7.4, 310 mOsm. Field potentials were recorded with glass micropipettes (2-4 MΩ) filled with ACSF placed in the stratum radiatum […] from the cell body layer. Synaptic responses were evoked by stimulation (0.05 ms) of the Schaffer collateral-commissural pathway with a bipolar tungsten electrode in the presence of bicuculline methiodide (10 μM). For INMDA recording, Mg^2+ was removed from and 20 μM CNQX was added in ACSF. Following 10-20 min base line recordings of EPSCs, INMDA and fEPSPs, Tat-peptides were applied in ACSF and recordings were continued for 30 min thereafter.

Tat-KLSSIESDV [Tat-NR2B9c]
vulnerability of neurons to NMDA toxicity, post-treatment ([1]; 50 nM applied after 1 h NMDA challenge (0-100 μM), cell death at 20 h): significantly reduced | NMDA-evoked cell death, pre-treatment ([1]; 50 nM for 1 h, then NMDA 0-100 μM 1 h, 20 h observation): significantly reduced | ROS production by stretch alone (reactive oxygen species; 50 nM pretreatment): has no effect | NMDA-evoked ROS production (DHR oxidation) (reactive oxygen species; 50 nM pretreatment 30 min, stretched and unstretched cultures): reduced NMDA-evoked ROS production | uptake of 45Ca2+ produced by applying NMDA (NMDARs): did not alter | return to pre-surgery weight for 2 consecutive days, earlier than saline or NR2B-AA treated rats ([2]; 3 nmoles/g i.v. 3 hours after onset of ischemia): about 1 week | Mean latency to retreat from the open to the closed arm in the elevated plus maze ([2]; 6 days following MCA occlusion): significant difference from Tat-NR2B-AA | Mean (SE) core temperature during surgery ([2]; MCAO 90 min): 37.1 (∀0.1) | Mean (SE) core temperature subsequent to surgery ([2]; MCAO 90 min): 37.9 (∀0.2) | Mean (SE) systolic blood pressure during surgery ([2]; MCAO 90 min): 112 (∀6.3) | Mean (SE) systolic blood pressure prior to surgery ([2]; MCAO 90 min): 106 (∀4.3) | Mean (SE) systolic blood pressure subsequent to surgery ([2]; MCAO 90 min): 122 (∀5.5) | Mean (SE) core temperature prior to surgery ([2]; MCAO 90 min, drug i.v. 3 hours after onset of ischemia): 36.7 (∀0.2) | individual weight post-surgery versus controls ([2]; a number of days including day 56 post-injury): significantly heavier | Morris water maze acquisition phase ([2]; approximately 2 months post-injury): No significant group differences | Morris water maze memory (time in the target quadrant) ([2]; approximately 2 months post-injury, vs combined control): significantly reduced memory deficits | Barnes maze escape latencies, acquisition phase ([2]; days 36-45): consistently shorter mean escape latencies | Barnes maze retest (memory) ([2]; days 36-45, relative to controls): performed significantly better | Habituation score for grid crosses in the open field arena ([2]; difference between day 5 and day 15): significant difference from Tat-NR2B-AA and Saline | latency in horizontal ladder task ([2]; post-surgery days 5, 9 and 14): significantly reduced latencies | number of paw slips in horizontal ladder task ([2]; post-surgery days 5, 9 and 14): significantly fewer paw slips | total infarct area and volume at 62 days post-surgery ([2]; relative to TAT-NR2B-AA and saline): reduced total infarct area and volume | Mean sensory-motor score over 56 days post-MCAO ([2]; treated at 3 hours post-MCAO): significant long-term functional neuroprotection | changes in sensory-motor, open field, or exploratory behaviour [3]: No significant changes | Body Temperature ([4]; After MCAo (15 min)): 36.8 ± 0.12 °C | Body Temperature ([4]; After MCAo (24 hr)): 36.5 ± 0.14 °C | Body weight ([4]; After MCAo (24 hr)): 250 ± 5 g | Body Temperature ([4]; Before MCAo(15 min)): 36.7 ± 0.20 °C | MABP ([4]; Before MCAo(15 min)): 90 ± 6 mmHg | Blood gases PCO2 ([4]; Before MCAo(30 min)): 38.1 ± 1.4 mmHg | Blood gases PH ([4]; Before MCAo(30 min)): 7.44 ± 0.02 | Blood gases PO2 ([4]; Before MCAo(30 min)): 123 ± 8 mmHg | Body Temperature ([4]; Before MCAo(30 min)): 36.7 ± 0.19 °C | MABP ([4]; Before MCAo(30 min)): 76 ± 5 mmHg | Body Temperature ([4]; Before MCAo(45 min)): 36.6 ± 0.21 °C | MABP ([4]; Before MCAo(45 min)): 120 ± 9 mmHg | Body weight ([4]; Before anesthesia): 271 ± 5 g | Blood gases PCO2 ([4]; During MCAo (5 min)): 41.0 ± 1.3 mmHg | Blood gases PH ([4]; During MCAo (5 min)): 7.44 ± 0.02 | Blood gases PO2 ([4]; During MCAo (5 min)): 112 ± 6 mmHg | Body Temperature ([4]; During MCAo (5 min)): 36.7 ± 0.16 °C | MABP ([4]; During MCAo (5 min)): 112 ± 9 mmHg | Body Temperature ([4]; During MCAo (15 min)): 36.8 ± 0.23 °C | MABP ([4]; During MCAo (15 min)): 98 ± 6 mmHg | synaptic responses, total EPSC and AMPA or NMDA components of the EPSC in CA1 neurons (CA1 neurons): had no effect
